Source: patent US20230107770A1, “METHOD OF ENHANCING IMMUNOTHERAPY USING ER STRESS PATHWAY INHIBITORS” (H. LEE MOFFITT CANCER CENTER AND RESEARCH INSTITUTE, INC., priority 2020, published 2023)
Entries after “also recorded” stand apart in the source; their conditions may differ.

Tests used:
[1] = tested on: ID8-Defb29/Vegfa tumors; assay: Orthotopic ID8-Defb29/Vegfa ovarian tumor model treated with MKC8866; assay type: in vivo, mice
From the text: (§1) FIGS. 19A, 19B, 19C, 19D, 19E, and 19F show Inhibition of IRE1α-XBP1 blunts tumor growth and activates effector T cell activity in tumors. […] Pictures denote the content of hemorrhagic ascites. […] FIGS. 19D, 19E, and 19F show the frequency of T cell populations in peritoneal tumors from ID8-Defb29/Vegfa-bearing mice treated with MKC8866 for two weeks. ***P<0.0001, **P<0.001 (Student's t-test). N=two repeats with a total of 8-10 mice per group.
(§2) We optimized a therapeutic scheme wherein female mice bearing orthotropic ID8-Defb29/Vegfa tumors for 7 days were treated daily for two weeks with vehicle or MKC8866, a novel small-molecule inhibitor that selectively blocks the RNase domain of IRE1α, impeding the generation of XBP1s.

[2] = tested on: IRE1α-generated Xbp1s mRNA; assay: Xbp1s mRNA in peritoneal leukocytes of ID8-Defb29/Vegfa-bearing mice; assay type: in vivo; conditions: MKC8866 300 mg/kg; leukocytes isolated 12 h later
From the text: as §1, §2

[3] = tested on: human FSH-CER T cells; assay: Expansion of IL-2-supplemented human FSH-CER T cells with ER stress inhibitors; assay type: cell-based; conditions: treatment for 5 days
Experimental: The role of the PERK-Chop in the expansion of tumor TRM cells using conditional T cell Chop-null mice was evaluated. In agreement with the inhibitory effect of Chop in TRM development, higher frequency of TRM cells was detected in tumors from T cell-Chop^KO mice compared to controls (FIG. 23A). Next, we tested the effect of the inhibition of PERK (AMG-44) and IRE 1α (MKC8866) during the expansion of IL-2-supplemented human FSH-CER T cells. […] Also, we evaluated the therapeutic effect of the combination of ER stress-targeting therapy and FSH-CER. Thus, mice bearing FSHR+-ID8-Defb29/Vegfa ovarian tumors for 7 days received daily treatments with MKC8866 (i.p., 300 mg/kg) or AMG-44 (i.p. 12 mg/kg) for one-week, and i.p. transfer of FSH-CER T cells at days 7 and 14 post-tumor challenge. […] We postulate that treatments for longer time periods with ER stress inhibitors will further potentiate the effect of FSH-CER T cells

[4] = tested on: FSHR+-ID8-Defb29/Vegfa ovarian tumors; assay: ER stress-targeting therapy combined with FSH-CER T cells in ovarian tumor-bearing mice; assay type: in vivo; conditions: MKC8866 i.p. 300 mg/kg or AMG-44 i.p. 12 mg/kg daily for one week; FSH-CER T cells days 7 and 14
Experimental: The role of the PERK-Chop in the expansion of tumor TRM cells using conditional T cell Chop-null mice was evaluated. In agreement with the inhibitory effect of Chop in TRM development, higher frequency of TRM cells was detected in tumors from T cell-Chop^KO mice compared to controls (FIG. 23A). Next, we tested the effect of the inhibition of PERK (AMG-44) and IRE 1α (MKC8866) during the expansion of IL-2-supplemented human FSH-CER T cells. […] Also, we evaluated the therapeutic effect of the combination of ER stress-targeting therapy and FSH-CER. […]
Activation of the UPR in cancer cells mediates adaptation processes in the TME, whereas UPR priming in tumor-myeloid cells promotes their immunoregulatory activity. […] As main readouts of therapeutic efficacy, we will monitor tumor burden, overall survival, and tumor CER-T cell infiltration, persistence, and cytotoxic capacity (Exp. C.2.1.1). […] Additionally, we will sort DCs and MDSC from tumor sites and lymphoid organs to quantify the expression of ER stress gene markers, their ability to impair T cell proliferation and IFNγ production, and the levels of the UPR-related immunoinhibitory factors IL-6, PGE2, Cox-2, mPGES-1, and Arginase I. All required methods are established by our groups. […]

Q: How did the “PD-1 in intra-tumoral CD8+ T cells” value ([1]; MKC8866-treated mice vs vehicle) turn out when `COc1cc2c(C)c(CC(=O)N3CCOCC3)c(=O)oc2c(C=O)c1O` [MKC8866] was run?
A: The value was “upregulation of PD-1; also recorded: substantial elevation of the immune checkpoint PD-1”.

Q: What about the “generation of hemorrhagic ascites” value ([1]; MKC8866 daily for two weeks vs vehicle) of the same molecule?
A: The value was “impaired generation of hemorrhagic ascites”.

Q: And the malignant progression ([1]; MKC8866 daily for two weeks vs vehicle, weight gain)?
A: Its malignant progression is “delayed malignant progression”.

Q: And the “capacity of intra-tumoral CD8+ T cells to produce IFNγ and TNFα in situ” value ([1]; MKC8866 for two weeks)?
A: Its value is “augmenting their capacity to produce both IFNγ and TNFα in situ”.

Q: What about the “proportion of proliferating (Ki67+) antigen-experienced (CD44+) CD8+ T cells infiltrating tumors” value ([1]; MKC8866 for two weeks) of the same molecule?
A: Its value is “increased the proportion”.

Q: What about the “levels of IRE1α-generated Xbp1s mRNA in peritoneal leukocytes” value [2] of the same molecule?
A: Its value is “rapidly and significantly decreased”.

Q: What about the “frequency of FSH-CER TRM cells” value [3] of the same molecule?
A: Its value is “Higher frequency of FSH-CER TRM cells”.

Q: What about the “survival of hosts receiving FSH-CER T cells plus inhibitor” value [4] of the same molecule?
A: The value was “Prolonged survival”.
